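Assay format: 96-well plates, 48-hour exposure. TGI denotes the concentration required for complete inhibition of growth.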
Columns and labels:
Experiment in all cases: NCI-60 cell line screen, 48 h
OVCAR-4 ovarian = tested on: OVCAR-4 ovarian
K-562 leukemia = tested on: K-562 leukemia
HOP-92 NSCLC = tested on: HOP-92 NSCLC
ACHN renal = tested on: ACHN renal
TK-10 renal = tested on: TK-10 renal
SNB-19 CNS = tested on: SNB-19 CNS
HL-60(TB) leukemia = tested on: HL-60(TB) leukemia
CCRF-CEM leukemia = tested on: CCRF-CEM leukemia
RXF 393 renal = tested on: RXF 393 renal
HS 578T breast = tested on: HS 578T breast
COLO 205 colon = tested on: COLO 205 colon
MDA-MB-231 breast = tested on: MDA-MB-231 breast
SK-MEL-5 melanoma = tested on: SK-MEL-5 melanoma
HCC-2998 colon = tested on: HCC-2998 colon
A549 NSCLC = tested on: A549 NSCLC
U251 CNS = tested on: U251 CNS
MDA-MB-435 = tested on: MDA-MB-435
MALME-3M melanoma = tested on: MALME-3M melanoma
DU-145 prostate = tested on: DU-145 prostate
NCI-H226 lung = tested on: NCI-H226 lung
NCI-H460 lung = tested on: NCI-H460 lung
MOLT-4 leukemia = tested on: MOLT-4 leukemia
NCI-H522 lung = tested on: NCI-H522 lung
BT-549 breast = tested on: BT-549 breast
NCI/ADR-RES ovarian = tested on: NCI/ADR-RES ovarian
SF-295 CNS = tested on: SF-295 CNS
SNB-75 CNS = tested on: SNB-75 CNS
SK-MEL-2 melanoma = tested on: SK-MEL-2 melanoma
UACC-257 melanoma = tested on: UACC-257 melanoma
M14 melanoma = tested on: M14 melanoma
EKVX NSCLC = tested on: EKVX NSCLC
MCF7 breast = tested on: MCF7 breast
UACC-62 melanoma = tested on: UACC-62 melanoma
HT29 colon = tested on: HT29 colon
OVCAR-8 ovarian = tested on: OVCAR-8 ovarian
UO-31 renal = tested on: UO-31 renal
IGROV1 ovarian = tested on: IGROV1 ovarian
SK-OV-3 ovarian = tested on: SK-OV-3 ovarian
SW-620 colon = tested on: SW-620 colon
MDA-N = tested on: MDA-N
PC-3 prostate = tested on: PC-3 prostate
HCT-116 colon = tested on: HCT-116 colon
HOP-62 NSCLC = tested on: HOP-62 NSCLC
KM12 colon = tested on: KM12 colon
T-47D breast = tested on: T-47D breast
NCI-H23 lung = tested on: NCI-H23 lung
CAKI-1 renal = tested on: CAKI-1 renal
786-0 renal = tested on: 786-0 renal
SF-268 CNS = tested on: SF-268 CNS
LOX IMVI melanoma = tested on: LOX IMVI melanoma
HCT-15 colon = tested on: HCT-15 colon
RPMI-8226 leukemia = tested on: RPMI-8226 leukemia
SN12C renal = tested on: SN12C renal
OVCAR-5 ovarian = tested on: OVCAR-5 ovarian
SF-539 CNS = tested on: SF-539 CNS
A498 renal = tested on: A498 renal
OVCAR-3 ovarian = tested on: OVCAR-3 ovarian
SK-MEL-28 melanoma = tested on: SK-MEL-28 melanoma
SR leukemia = tested on: SR leukemia

COC(=O)[C@H](Cc1ccccc1)NP(=O)(OCCC#N)OCC1OC(n2cc(C)c(=O)[nH]c2=O)CC1N=[N+]=[N-] (stereo partly drawn)
TGI (OVCAR-4 ovarian): > 100 µM
TGI (K-562 leukemia): > 100 µM
TGI (HOP-92 NSCLC): > 100 µM
TGI (ACHN renal): > 100 µM
TGI (TK-10 renal): > 100 µM
TGI (SNB-19 CNS): > 100 µM
TGI (HL-60(TB) leukemia): > 100 µM
TGI (CCRF-CEM leukemia): > 100 µM
TGI (RXF 393 renal): > 100 µM
TGI (HS 578T breast): > 100 µM
TGI (COLO 205 colon): > 100 µM
TGI (MDA-MB-231 breast): > 100 µM
TGI (SK-MEL-5 melanoma): > 100 µM
TGI (HCC-2998 colon): > 100 µM
TGI (A549 NSCLC): > 100 µM
TGI (U251 CNS): > 100 µM
TGI (MDA-MB-435): > 100 µM
TGI (MALME-3M melanoma): > 100 µM
TGI (DU-145 prostate): > 100 µM
TGI (NCI-H226 lung): > 100 µM
TGI (NCI-H460 lung): > 100 µM
TGI (MOLT-4 leukemia): > 100 µM
TGI (NCI-H522 lung): > 100 µM
TGI (BT-549 breast): > 100 µM
TGI (NCI/ADR-RES ovarian): > 100 µM
TGI (SF-295 CNS): > 100 µM
TGI (SNB-75 CNS): > 100 µM
TGI (SK-MEL-2 melanoma): > 100 µM
TGI (UACC-257 melanoma): > 100 µM
TGI (M14 melanoma): > 100 µM
TGI (EKVX NSCLC): > 100 µM
TGI (MCF7 breast): > 100 µM
TGI (UACC-62 melanoma): > 100 µM
TGI (HT29 colon): > 100 µM
TGI (OVCAR-8 ovarian): > 100 µM
TGI (UO-31 renal): > 100 µM
TGI (IGROV1 ovarian): > 100 µM
TGI (SK-OV-3 ovarian): > 100 µM
TGI (SW-620 colon): > 100 µM
TGI (MDA-N): > 100 µM
TGI (PC-3 prostate): > 100 µM
TGI (HCT-116 colon): > 100 µM
TGI (HOP-62 NSCLC): > 100 µM
TGI (KM12 colon): > 100 µM
TGI (T-47D breast): > 100 µM
TGI (NCI-H23 lung): > 100 µM
TGI (CAKI-1 renal): > 100 µM
TGI (786-0 renal): > 100 µM
TGI (SF-268 CNS): > 100 µM
TGI (LOX IMVI melanoma): > 100 µM
TGI (HCT-15 colon): > 100 µM
TGI (RPMI-8226 leukemia): > 100 µM
TGI (SN12C renal): > 100 µM
TGI (OVCAR-5 ovarian): > 100 µM

CCOC(=O)c1cc(=O)c2ccnc3c2n1CCS3
TGI (HOP-92 NSCLC): > 100 µM
TGI (ACHN renal): > 100 µM
TGI (SF-539 CNS): > 100 µM
TGI (TK-10 renal): > 100 µM
TGI (SNB-19 CNS): > 100 µM
TGI (HL-60(TB) leukemia): > 100 µM
TGI (CCRF-CEM leukemia): > 100 µM
TGI (HS 578T breast): > 100 µM
TGI (COLO 205 colon): > 100 µM
TGI (MDA-MB-231 breast): > 100 µM
TGI (A498 renal): > 100 µM
TGI (OVCAR-3 ovarian): > 100 µM
TGI (SK-MEL-5 melanoma): > 100 µM
TGI (A549 NSCLC): > 100 µM
TGI (U251 CNS): > 100 µM
TGI (MDA-MB-435): > 100 µM
TGI (SK-MEL-28 melanoma): > 100 µM
TGI (DU-145 prostate): > 100 µM
TGI (NCI-H226 lung): > 100 µM
TGI (NCI-H460 lung): > 100 µM
TGI (MOLT-4 leukemia): > 100 µM
TGI (NCI-H522 lung): 74.4 µM
TGI (BT-549 breast): > 100 µM
TGI (NCI/ADR-RES ovarian): > 100 µM
TGI (SF-295 CNS): > 100 µM
TGI (SNB-75 CNS): > 100 µM
TGI (SK-MEL-2 melanoma): > 100 µM
TGI (UACC-257 melanoma): > 100 µM
TGI (M14 melanoma): > 100 µM
TGI (EKVX NSCLC): > 100 µM
TGI (MCF7 breast): > 100 µM
TGI (UACC-62 melanoma): > 100 µM
TGI (HT29 colon): > 100 µM
TGI (OVCAR-8 ovarian): > 100 µM
TGI (UO-31 renal): > 100 µM
TGI (IGROV1 ovarian): > 100 µM
TGI (SK-OV-3 ovarian): > 100 µM
TGI (SW-620 colon): > 100 µM
TGI (MDA-N): > 100 µM
TGI (PC-3 prostate): > 100 µM
TGI (HCT-116 colon): > 100 µM
TGI (HOP-62 NSCLC): > 100 µM
TGI (KM12 colon): > 100 µM
TGI (T-47D breast): > 100 µM
TGI (NCI-H23 lung): > 100 µM
TGI (CAKI-1 renal): > 100 µM
TGI (786-0 renal): > 100 µM
TGI (SF-268 CNS): > 100 µM
TGI (LOX IMVI melanoma): > 100 µM
TGI (HCT-15 colon): > 100 µM
TGI (SN12C renal): > 100 µM
TGI (OVCAR-5 ovarian): > 100 µM

OC1c2ccccc2CC12Cc1ccccc1C2 (stereo not drawn)
TGI (OVCAR-4 ovarian): > 100 µM
TGI (K-562 leukemia): > 100 µM
TGI (HOP-92 NSCLC): > 100 µM
TGI (ACHN renal): > 100 µM
TGI (SF-539 CNS): > 100 µM
TGI (TK-10 renal): > 100 µM
TGI (SNB-19 CNS): > 100 µM
TGI (HL-60(TB) leukemia): > 100 µM
TGI (CCRF-CEM leukemia): > 100 µM
TGI (RXF 393 renal): > 100 µM
TGI (HS 578T breast): > 100 µM
TGI (COLO 205 colon): > 100 µM
TGI (MDA-MB-231 breast): > 100 µM
TGI (A498 renal): > 100 µM
TGI (OVCAR-3 ovarian): > 100 µM
TGI (SK-MEL-5 melanoma): 49.6 µM
TGI (HCC-2998 colon): > 100 µM
TGI (A549 NSCLC): > 100 µM
TGI (U251 CNS): > 100 µM
TGI (MDA-MB-435): > 100 µM
TGI (SK-MEL-28 melanoma): > 100 µM
TGI (MALME-3M melanoma): > 100 µM
TGI (DU-145 prostate): > 100 µM
TGI (NCI-H226 lung): 25.1 µM
TGI (NCI-H460 lung): > 100 µM
TGI (MOLT-4 leukemia): > 100 µM
TGI (SR leukemia): > 100 µM
TGI (NCI-H522 lung): > 100 µM
TGI (NCI/ADR-RES ovarian): > 100 µM
TGI (SF-295 CNS): > 100 µM
TGI (SNB-75 CNS): > 100 µM
TGI (SK-MEL-2 melanoma): > 100 µM
TGI (UACC-257 melanoma): > 100 µM
TGI (M14 melanoma): > 100 µM
TGI (EKVX NSCLC): > 100 µM
TGI (MCF7 breast): > 100 µM
TGI (HT29 colon): > 100 µM
TGI (OVCAR-8 ovarian): > 100 µM
TGI (UO-31 renal): > 100 µM
TGI (IGROV1 ovarian): > 100 µM
TGI (SK-OV-3 ovarian): > 100 µM
TGI (SW-620 colon): > 100 µM
TGI (MDA-N): > 100 µM
TGI (PC-3 prostate): > 100 µM
TGI (HCT-116 colon): > 100 µM
TGI (HOP-62 NSCLC): > 100 µM
TGI (KM12 colon): > 100 µM
TGI (T-47D breast): > 100 µM
TGI (NCI-H23 lung): > 100 µM
TGI (CAKI-1 renal): > 100 µM
TGI (786-0 renal): > 100 µM
TGI (SF-268 CNS): > 100 µM
TGI (LOX IMVI melanoma): > 100 µM
TGI (HCT-15 colon): > 100 µM
TGI (RPMI-8226 leukemia): > 100 µM
TGI (SN12C renal): > 100 µM
TGI (OVCAR-5 ovarian): > 100 µM
